In patent US20190247353A1, “ACNE STRAIN-SELECTIVE ANTIBACTERIAL AGENT” (MOMOTANI JUNTENKAN CO., LTD., priority 2016, published 2019):
In brackets after ≈: the same amount, converted by molar mass. Where two headings read alike, the source gives them in different places.

Columns and labels:
Assay type in all cases: cell-based, Propionibacterium acnes
HL053PA1 strain (RT4) = assay: MIC by broth microdilution method, HL053PA1 strain; conditions: for MIC: Cutibacterium acnes
Description: (§1) An MIC is measured herein according to the broth microdilution method which is the standard method of Japanese Society of Chemotherapy.
(§2) The antibacterial activity of a test substance was determined based on the minimum inhibitory concentration (MIC). An MIC was measured according to the broth microdilution method which is the standard method of Japanese Society of Chemotherapy.
(§3) One-loopful of each acne bacterium strain listed in Table 1 was scraped off and inoculated into 5 mL of a GAM broth slant agar medium (pH 7.0, Nissui Pharmaceutical Co., Ltd.).
(§4) The inoculated acne bacterium strain was precultured at 37° C. in a nitrogen atmosphere (anaerobic condition) for 48 hours. The precultured microbial cells were diluted in a modified GAM broth liquid medium (pH 6.0) to a concentration of 5.0×10^4 cfu/mL (viable cell count per OD660=1 is 2.0×10^9 cfu/mL), to prepare strain suspensions.
(§5) Each fatty acid (Tokyo Chemical Industry Co., Ltd.) listed in Table 2 was dissolved in dimethylsulfoxide (DMSO) as a solvent such that the concentration became 10,000 μg/mL, and used as a test substance.
(§6) Each of strain suspensions (5.0×10^4 cfu/mL) was aliquoted in a 96-well round bottom microplate, each of the test substance (fatty acid concentration 10,000 μg/mL) was added at a 1/10 volume to the aliquot and mixed to prepare measurement samples (fatty acid concentration: 1,000 μg/mL). Measurement samples in 2-fold dilution series were prepared using the strain suspension (fatty acid concentration from 0.48 to 1,000 μg/mL).
(§7) […] The presence or absence of a precipitation of test microbial cells after the incubation was examined and the minimum concentration at which the precipitation of microbial cells […] was regarded as the MIC (μg/mL) of the test substance against the acne bacterium strain.

HL043PA1 strain (RT5) = assay: MIC by broth microdilution method, HL043PA1 strain; conditions: for MIC: Cutibacterium acnes
Description: as §1, §2, §3
The inoculated acne bacterium strain was precultured at 37° C. in a nitrogen atmosphere (anaerobic condition) for 48 hours. […]
as §5, §6
The measurement samples were incubated under an anaerobic condition at 37° C. for 2 days. The presence or absence of a precipitation of test microbial cells after the incubation was examined and the minimum concentration at which the precipitation of microbial cells […] was regarded as the MIC (μg/mL) of the test substance against the acne bacterium strain.

HL110PA3 strain (RT6) [1] = assay: MIC by broth microdilution method, HL110PA3 strain; conditions: for MIC: Cutibacterium acnes, 48 h
Description: as §1, §2, §3, §4, §5, §6, §7

[2] = tested on: HL053PA1 strain (RT4) and HL043PA1 strain (RT5) versus HL110PA3 strain (RT6); assay: Strain-selective antibacterial activity (average of MICRT6/MICRT4 and MICRT6/MICRT5)
Excerpt: Herein, “acne strain-selective antibacterial activity” or “strain-selective antibacterial activity” means an index indicating better inhibition of growth of a dominant strain in acne patients compared to that of a dominant strain in healthy subjects. It is expressed by the average value of the values (MICRT6/MICRT4, and MICRT6/MICRTS) obtained by dividing the minimum inhibitory concentration (MIC) of an object substance with respect to the dominant strain in healthy subjects (RT6 strain) (MICRT6) respectively by the MIC of the object substance with respect to the dominant strain in acne patients (RT4 strain) (MICRT4), and by the MIC of the object substance with respect to the dominant strain in acne patients (RT5 strain) (MICRT5).
The strain-selective antibacterial activity of each test substance (Table 2, right-most column) was evaluated based on the following rating criteria (Table 3). When the strain-selective antibacterial activity is indicated by a numerical range, the rating was based on the minimum value thereof.

HL110PA3 strain (RT6) [3] = assay: MIC by broth microdilution method, HL110PA3 strain; conditions: Cutibacterium acnes; control antibiotics, Comparative Example 2, method as Example 1; LOD = MIC <0.48 ng/mL; read-out: MIC against acne bacterium strain HL110PA3 strain (RT6)
[4] = 48 h, pH 6.0 modified GAM broth, anaerobic, 37° C., 2 days (Example 1), read-out: MIC against acne bacterium strain HL053PA1 strain (RT4)
[5] = 48 h, pH 6.0 modified GAM broth, anaerobic, 37° C., 2 days (Example 1), read-out: MIC against acne bacterium strain HL043PA1 strain (RT5)
[6] = pH 6.0 modified GAM broth, anaerobic, 37° C., 2 days (Example 1), read-out: MIC against acne bacterium strain HL110PA3 strain (RT6)
[7] = monoacylglycerols, Example 3, method as Example 1
[8] = control antibacterial agents, Comparative Example 1, method as Example 1

Row | SMILES | MIC (HL053PA1 strain (RT4); [4]) | MIC (HL043PA1 strain (RT5); [5]) | MIC (HL110PA3 strain (RT6) [1]; [6]) | Strain-selective antibacterial activity ([2]; pH 6.0 (Example 1)) | other results
1 | CC[C@H]1OC(=O)[C@H](C)[C@@H](O[C@H]2C[C@@](C)(OC)[C@@H](O)[C@H](C)O2)[C@H](C)[C@@H](O[C@@H]2O[C@H](C)C[C@H](N(C)C)[C@H]2O)[C@](C)(O)C[C@@H](C)/C(=N\OCOCCOC)[C@H](C)[C@@H](O)[C@]1(C)O [Roxithromycin, reference compound] |  |  |  |  | MIC (HL053PA1 strain (RT4); control antibiotics, Comparative Example 2, method as Example 1, read-out: MIC against acne bacterium strain HL053PA1 strain (RT4)): 500 µg/mL (≈ 597 µM); MIC (HL043PA1 strain (RT5); control antibiotics, Comparative Example 2, method as Example 1, read-out: MIC against acne bacterium strain HL043PA1 strain (RT5)): 1000 µg/mL (≈ 1190 µM); MIC (HL110PA3 strain (RT6) [3]): 0.0038 µg/mL (≈ 0.00454 µM)
2 | CCCCCCCCCCCC(=O)O [Lauric acid (C12:0), Lauric acid, reference compound] | 15.6 µg/mL (≈ 77.9 µM) | 31.3 µg/mL (≈ 156 µM) | 15.6 µg/mL (≈ 77.9 µM) |  | 
3 | CCCCCCCCCCCCCCC(=O)OCC(O)CO (stereo not drawn) [Monopentadecanoin] |  |  |  |  | MIC against acne bacterium strain HL053PA1 strain (RT4) (HL053PA1 strain (RT4); [7]): 15.6 µg/mL (≈ 49.3 µM); MIC against acne bacterium strain HL043PA1 strain (RT5) (HL043PA1 strain (RT5); [7]): 7.81 µg/mL (≈ 24.7 µM); MIC against acne bacterium strain HL110PA3 strain (RT6) (HL110PA3 strain (RT6) [1]; [7]): 62.5 µg/mL (≈ 197 µM); Strain-selective antibacterial activity ([2]; monoacylglycerols, Example 3): 6.0
4 | Cc1cc(O)ccc1C(C)C [reference compound] |  |  |  |  | MIC against acne bacterium strain HL053PA1 strain (RT4) (HL053PA1 strain (RT4); [8]): 125 µg/mL (≈ 832 µM); MIC against acne bacterium strain HL043PA1 strain (RT5) (HL043PA1 strain (RT5); [8]): 125 µg/mL (≈ 832 µM); MIC against acne bacterium strain HL110PA3 strain (RT6) (HL110PA3 strain (RT6) [1]; [8]): 62.5 µg/mL (≈ 416 µM); Strain-selective antibacterial activity ([2]; control antibacterial agents, Comparative Example 1): 0.50
5 | CCCCCC(=O)O [Caproic acid (C6:0), Caproic acid, reference compound] |  |  |  | 1.0 | MIC (HL053PA1 strain (RT4); 48 h, pH 6, read-out: MIC against acne bacterium strain HL053PA1 strain (RT4)): 62.5 µg/mL (≈ 538 µM); MIC (HL043PA1 strain (RT5); 48 h, pH 6, read-out: MIC against acne bacterium strain HL043PA1 strain (RT5)): 62.5 µg/mL (≈ 538 µM); MIC (HL110PA3 strain (RT6) [1]; pH 6, read-out: MIC against acne bacterium strain HL110PA3 strain (RT6)): 62.5 µg/mL (≈ 538 µM)
6 | CCCCCCCC/C=C\CCCCCCCC(=O)O [Oleic acid (C18:1), Oleic acid] | 500 µg/mL (≈ 1770 µM) | 62.5 µg/mL (≈ 221 µM) | > 1000 µg/mL | >9.0 | Strain-selective antibacterial activity at each pH ([2]; pH 6 (summary Table 10)): >9
7 | CCCCCCCCCCCCCC(=O)OCC(O)CO (stereo not drawn) [Monomyristin] |  |  |  |  | MIC against acne bacterium strain HL053PA1 strain (RT4) (HL053PA1 strain (RT4); [7]): 500 µg/mL (≈ 1650 µM); MIC against acne bacterium strain HL043PA1 strain (RT5) (HL043PA1 strain (RT5); [7]): 500 µg/mL (≈ 1650 µM); MIC against acne bacterium strain HL110PA3 strain (RT6) (HL110PA3 strain (RT6) [1]; [7]): >1000 µg/mL; Strain-selective antibacterial activity ([2]; monoacylglycerols, Example 3): >2.0

Continued, in another order:

Row | MIC (HL053PA1 strain (RT4); [4]) | MIC (HL043PA1 strain (RT5); [5]) | MIC (HL110PA3 strain (RT6) [1]; [6]) | SMILES | Strain-selective antibacterial activity ([2]; pH 6.0 (Example 1)) | other results
8 | 250 µg/mL (≈ 1730 µM) | 250 µg/mL (≈ 1730 µM) | 125 µg/mL (≈ 867 µM) | CCCCCCCC(=O)O [Caprylic acid (C8:0), Caprylic acid, reference compound] | 0.50 | 
9 | 15.6 µg/mL (≈ 83.7 µM) | 15.6 µg/mL (≈ 83.7 µM) | 15.6 µg/mL (≈ 83.7 µM) | CCCCCCCCCCC(=O)O [Undecanoic acid (C11:0), Undecanoic acid, reference compound] | 1.0 | 
10 | 125 µg/mL (≈ 960 µM) | 125 µg/mL (≈ 960 µM) | 125 µg/mL (≈ 960 µM) | CCCCCCC(=O)O [Heptanoic acid (C7:0), Heptanoic acid, reference compound] | 1.0 | 
